Literature values in patent publication US20250241356A1, “ORAL COMPOSITION COMPRISING RECEPTOR MODULATOR” (NICOVENTURES TRADING LIMITED, priority 2022, published 2025).
Like-named read-outs stand apart in the source and are kept apart here.

Key:
TRPM8 = TRPM8 (Mus musculus, UniProt Q8R4D5)
Sequence of TRPM8 (Q8R4D5 whole entry): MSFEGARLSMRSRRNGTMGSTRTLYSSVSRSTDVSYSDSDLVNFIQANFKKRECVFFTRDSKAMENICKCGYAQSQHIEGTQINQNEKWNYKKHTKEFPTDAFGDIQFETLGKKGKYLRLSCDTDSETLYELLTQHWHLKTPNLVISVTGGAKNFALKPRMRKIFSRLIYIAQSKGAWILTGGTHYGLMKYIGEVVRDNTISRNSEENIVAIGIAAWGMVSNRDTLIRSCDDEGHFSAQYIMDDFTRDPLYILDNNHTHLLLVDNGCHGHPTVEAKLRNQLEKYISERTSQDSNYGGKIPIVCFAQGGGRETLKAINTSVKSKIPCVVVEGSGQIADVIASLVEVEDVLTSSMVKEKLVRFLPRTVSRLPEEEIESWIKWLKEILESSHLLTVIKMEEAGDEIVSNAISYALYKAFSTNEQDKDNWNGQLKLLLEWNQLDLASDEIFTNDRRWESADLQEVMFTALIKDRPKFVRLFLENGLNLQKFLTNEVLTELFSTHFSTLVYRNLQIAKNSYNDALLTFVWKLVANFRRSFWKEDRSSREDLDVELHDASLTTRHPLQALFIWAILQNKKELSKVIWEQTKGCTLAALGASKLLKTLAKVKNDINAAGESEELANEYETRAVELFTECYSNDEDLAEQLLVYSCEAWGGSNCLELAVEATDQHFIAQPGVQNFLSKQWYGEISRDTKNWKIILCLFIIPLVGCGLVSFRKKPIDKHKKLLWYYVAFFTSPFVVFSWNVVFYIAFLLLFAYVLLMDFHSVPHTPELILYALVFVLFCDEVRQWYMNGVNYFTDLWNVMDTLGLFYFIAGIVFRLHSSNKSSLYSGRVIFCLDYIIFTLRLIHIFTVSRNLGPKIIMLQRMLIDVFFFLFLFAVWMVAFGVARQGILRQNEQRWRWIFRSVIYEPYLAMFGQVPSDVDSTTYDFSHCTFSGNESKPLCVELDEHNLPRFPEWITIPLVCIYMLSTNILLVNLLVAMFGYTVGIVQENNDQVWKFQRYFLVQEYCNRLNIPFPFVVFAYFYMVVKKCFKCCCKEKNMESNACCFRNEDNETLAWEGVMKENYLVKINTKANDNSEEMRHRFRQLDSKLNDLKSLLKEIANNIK

| solubility in water | responses to icilin (TRPM8; extracellular [H+] increased from pH 7.3 to approximately pH 6) | responses to icilin (TRPM8; standard physiological solutions of pH 7.3) | solubility in fats and alcohols | chemical stability when isolated (converts via isomerization into trans-bixin (β-bixin)) | Compound |
| --- | --- | --- | --- | --- | --- |
| water-soluble |  |  |  |  | CC(/C=C/C=C(C)/C=C/C(=O)O)=C\C=C\C=C(C)\C=C\C=C(C)\C=C\C(=O)O (stereo in doubt) [norbixin, (2E,4E,6E,8E,10E,12E,14E,16E,18E)-4,8,13,17-tetramethylicosa-2,4,6,8,10,12,14,16,18-nonaenedioic acid] |
|  | abolished | evokes [Ca2+] dependent responses |  |  | O=C1NC(c2cccc([N+](=O)[O-])c2)=CCN1c1ccccc1O [icilin, 1-(2-hydroxyphenyl)-4-(3-nitrophenyl)-3,6-dihydropyrimidin-2-one] |
| insoluble in water |  |  | soluble in fats and alcohols | chemically unstable when isolated | COC(=O)/C=C/C(C)=C\C=C\C(C)=C\C=C\C=C(C)\C=C\C=C(C)\C=C\C(=O)O [bixin, (2E,4E,6E,8E,10E,12E,14E,16Z,18E)-20-methoxy-4,8,13,17-tetramethyl-20-oxoicosa-2,4,6,8,10,12,14,16,18-nonaenoic acid] |
